Broadly, the IC50 is the midpoint of a concentration-inhibition curve.

One data set relates to RSV replicon. In words: RSV subgenomic replicon assay (luciferase). The format is cell-based, Respiratory syncytial virus. The protocol:
The RSV subgenomic replicon (Apath, Brooklyn, NY, USA) was used as previously described. The HeLa-derived cells containing the stable RSV replicon were cultured in DMEM containing 4500 mg/L D-glucose, L-glutamine, and 110 mg/L sodium pyruvate. The medium was further supplemented with 10% (v/v) FBS (Mediatech), 1% (v/v) penicillin/streptomycin (Mediatech), and 10 μg/mL of Blasticidin (BSD) (Invivogen). Cells were maintained at 37°C in a humidified 5% CO2 atmosphere. On the first day, 5000 RSV replicon cells per well were plated in a 96-well plate. On the following day, compounds to be tested were solubilized in 100% DMSO to 100 × the desired final testing concentration. Cells were incubated with compounds for 7 days at 37°C in a 5% CO2 atmosphere before measurement of the luciferase readout. Cell viability (CC50) was measured with a CellTiter-Glo cell proliferation assay (Promega).
Background: A replicon is a self-replicating genome or part of one, used to study replication in cells.

The target of the next data set is RSV RNP complex (Human respiratory syncytial virus A, UniProt P28887). The data set is described as follows: biochemical. The format is biochemical. To be noted: for IC50: read-out: RSV polymerase inhibition class (IC50, RSV RNP complex); for inhibition of RSV RNP complex (in words): Fig 5B.
RSV RNP complex, sequence (P03421 whole entry): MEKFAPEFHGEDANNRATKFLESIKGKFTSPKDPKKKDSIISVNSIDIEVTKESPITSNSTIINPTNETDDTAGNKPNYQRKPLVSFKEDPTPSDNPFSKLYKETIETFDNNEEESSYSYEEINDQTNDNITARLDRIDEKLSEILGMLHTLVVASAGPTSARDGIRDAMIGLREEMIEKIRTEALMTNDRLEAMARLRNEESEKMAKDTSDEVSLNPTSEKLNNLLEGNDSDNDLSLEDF
RSV RNP complex, sequence (P28887 whole entry): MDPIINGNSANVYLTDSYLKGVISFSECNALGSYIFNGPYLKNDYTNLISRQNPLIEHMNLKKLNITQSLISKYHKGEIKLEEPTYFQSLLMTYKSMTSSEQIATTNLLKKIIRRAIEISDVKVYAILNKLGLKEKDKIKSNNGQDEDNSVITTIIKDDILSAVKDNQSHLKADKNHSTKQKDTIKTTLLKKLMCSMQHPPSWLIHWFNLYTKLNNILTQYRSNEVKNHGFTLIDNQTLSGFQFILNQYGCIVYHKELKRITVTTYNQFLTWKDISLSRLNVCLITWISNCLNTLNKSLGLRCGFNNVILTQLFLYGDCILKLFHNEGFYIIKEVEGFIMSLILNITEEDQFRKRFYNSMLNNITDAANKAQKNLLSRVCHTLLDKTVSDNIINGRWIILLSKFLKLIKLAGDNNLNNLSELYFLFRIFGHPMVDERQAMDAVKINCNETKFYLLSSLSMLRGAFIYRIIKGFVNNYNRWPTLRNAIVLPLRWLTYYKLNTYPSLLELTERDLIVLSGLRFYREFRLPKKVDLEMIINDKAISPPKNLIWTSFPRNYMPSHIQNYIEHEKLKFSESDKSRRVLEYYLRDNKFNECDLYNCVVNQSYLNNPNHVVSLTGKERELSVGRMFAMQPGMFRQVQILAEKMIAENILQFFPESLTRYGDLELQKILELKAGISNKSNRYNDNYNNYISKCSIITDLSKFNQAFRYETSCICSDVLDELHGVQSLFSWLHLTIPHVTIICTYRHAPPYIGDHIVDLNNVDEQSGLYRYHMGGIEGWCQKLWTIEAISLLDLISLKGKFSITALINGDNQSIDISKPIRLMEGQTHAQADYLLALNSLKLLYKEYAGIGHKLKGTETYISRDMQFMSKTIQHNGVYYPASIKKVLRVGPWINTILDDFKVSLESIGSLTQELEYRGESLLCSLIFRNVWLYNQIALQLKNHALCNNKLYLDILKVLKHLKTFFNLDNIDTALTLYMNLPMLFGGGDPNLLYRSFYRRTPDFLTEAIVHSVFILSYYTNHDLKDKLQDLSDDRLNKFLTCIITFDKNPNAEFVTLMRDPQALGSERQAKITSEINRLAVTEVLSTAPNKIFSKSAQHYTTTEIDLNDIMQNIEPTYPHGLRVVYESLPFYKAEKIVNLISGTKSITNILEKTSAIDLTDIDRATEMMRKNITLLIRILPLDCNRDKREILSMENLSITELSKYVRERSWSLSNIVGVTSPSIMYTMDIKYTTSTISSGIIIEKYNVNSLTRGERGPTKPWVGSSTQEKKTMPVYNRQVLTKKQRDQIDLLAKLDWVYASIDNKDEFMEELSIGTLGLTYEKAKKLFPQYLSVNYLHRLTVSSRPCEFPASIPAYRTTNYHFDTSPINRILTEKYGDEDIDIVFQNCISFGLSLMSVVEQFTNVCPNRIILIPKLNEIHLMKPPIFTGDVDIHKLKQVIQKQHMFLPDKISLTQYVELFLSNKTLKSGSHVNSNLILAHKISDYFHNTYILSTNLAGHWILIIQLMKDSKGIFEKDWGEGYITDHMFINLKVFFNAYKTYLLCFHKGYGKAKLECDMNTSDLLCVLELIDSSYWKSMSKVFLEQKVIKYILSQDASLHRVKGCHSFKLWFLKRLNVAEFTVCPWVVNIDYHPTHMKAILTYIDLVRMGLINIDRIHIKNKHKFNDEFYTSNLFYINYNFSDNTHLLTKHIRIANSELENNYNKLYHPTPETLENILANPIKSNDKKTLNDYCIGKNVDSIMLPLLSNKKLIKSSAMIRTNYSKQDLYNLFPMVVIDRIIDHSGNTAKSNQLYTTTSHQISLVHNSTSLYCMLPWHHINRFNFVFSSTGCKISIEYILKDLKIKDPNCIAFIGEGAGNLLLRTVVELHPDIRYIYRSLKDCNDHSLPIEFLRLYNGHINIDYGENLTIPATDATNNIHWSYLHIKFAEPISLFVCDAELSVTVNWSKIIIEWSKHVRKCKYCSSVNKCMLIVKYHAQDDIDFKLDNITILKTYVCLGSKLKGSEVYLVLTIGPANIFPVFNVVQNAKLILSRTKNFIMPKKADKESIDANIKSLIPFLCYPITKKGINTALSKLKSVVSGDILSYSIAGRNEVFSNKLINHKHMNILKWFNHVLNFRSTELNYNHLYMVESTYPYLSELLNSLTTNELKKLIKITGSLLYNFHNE
Another data set has as its target HCV polymerase (Hepatitis C virus genotype 1b, UniProt Q9WMX2). The data set is described as follows: HCV polymerase inhibition assay. Type of data set: biochemical. As to conditions: for IC50: read-out: HCV polymerase inhibition class (IC50).
The target in data set [1] is T1, wild-type RSV L-P RNA polymerase complex (Human respiratory syncytial virus A, UniProt P28887).
T1 construct: made in house; host or cells: insect cells
T1 sequence (P28887 whole entry): as above
T1 sequence (P03421 whole entry, further chain): as the sequence (P03421 whole entry) above
The format is biochemical. To be noted: for Km: primer extension from the +3 position, read-out: Km, single nucleotide incorporation, WT RSV L-P; for discrimination relative to natural CTP, WT RSV polymerase: Km CTP analog / Km CTP.

Data set [2] concerns the target RSV polymerase QUAD mutant (Human respiratory syncytial virus A, UniProt P28887, A789V/I796V/L795I/M628L). The data set is described as follows: Single nucleotide incorporation by recombinant RSV L-P polymerase, QUAD mutant. Type of data set: biochemical. As to conditions: for Km: primer extension from the +3 position, n = 2.
The target in data set [3] is human mitochondrial RNA polymerase (Homo sapiens, UniProt O00411). In words: DdRp assay with human mitochondrial RNA polymerase, single turnover. The format is biochemical.
In another data set the test system is RSV A2. In words: African Green monkey efficacy model. The format is in vivo, African Green monkeys (Chlorocebus sabaeus). As to conditions: oral BID, 200 mg/kg loading then 50 mg/kg, 6 days.
On the set-up of data set [4]: method as in PMID 25667954. To be noted: cited from earlier work.

Read-outs that look alike come from different tables or passages of the source. Some results are limits rather than exact numbers.

`Nc1ccn([C@@H]2O[C@](CCl)(CI)[C@@H](O)[C@H]2F)c(=O)n1` [ALS-8112-I, 4’-Chloromethyl-2’,5’-dideoxy-2’-fluoro-5’-iodocytidine]: the “inhibition of luciferase activity in the RSV replicon (in words)” value in the data set on RSV replicon is “did not significantly inhibit”.

Take “cytidine triphosphate [CTP, reference compound]”: the IC50 at RSV RNP complex and at HCV polymerase was above 10 µM throughout. Also, the figures for the Km in data set [1] and in data set [2] were 0.057 ± 0.009 µM and 0.056 ± 0.01 µM, respectively.

As to `C[C@@]1(F)[C@H](O)[C@@H](COP(=O)(O)OP(=O)(O)OP(=O)(O)O)O[C@H]1n1ccc(N)nc1=O` [mericitabine-TP, 2'F-2'Me-CTP, reference compound], the IC50 on RSV RNP complex (first symbol of RSV / HCV) is above 10 µM; at HCV polymerase (second symbol of RSV / HCV) it was below 0.1 µM. For the same molecule, the “substrate and chain termination profile with recombinant RSV polymerase (in words)” value (“substrate and chain termination profile” below) in data set [1] (Fig 5A) was “almost completely inactive”. Moreover, the “discrimination relative to natural CTP, WT RSV polymerase” value in data set [1] is “greater than 5,000 fold”. In addition, in data set [1] (at a concentration of 300 μM), the “level of incorporation by RSV polymerase” value is “less than 20%”.

On to `[N-]=[N+]=N[C@]1(COP(=O)(O)OP(=O)(O)OP(=O)(O)O)O[C@@H](n2ccc(N)nc2=O)[C@H](O)[C@@H]1O` [4'N3-CTP, reference compound], for which the “inhibition of RSV RNP complex (in words)” value at RSV RNP complex is recorded as “dual RSV/HCV polymerase inhibitors”. The IC50 was 0.1 to 10 µM at RSV RNP complex (first symbol of RSV / HCV) and below 0.1 µM at HCV polymerase (second symbol of RSV / HCV). Further, the “inhibition of HCV polymerase (in words)” value against HCV polymerase (Fig 5B) is given as “dual RSV/HCV polymerase inhibitors”. Besides, the “substrate and chain termination profile” value in data set [1] was “both substrates and chain terminators”. In addition, the “recognition as substrate by human mitochondrial RNA polymerase (in words)” value in data set [3] (100 μM of each NTP) is on record as “efficiently incorporated”.

Regarding 4'ClCH2-CTP, at RSV RNP complex, the “inhibition of RSV RNP complex (in words)” value was “dual RSV/HCV polymerase inhibitors”. Also, the IC50 on RSV RNP complex (first symbol of RSV / HCV) and on HCV polymerase (second symbol of RSV / HCV) was 0.1 to 10 µM throughout. Also, the “inhibition of HCV polymerase (in words)” value against HCV polymerase (Fig 5B) was “dual RSV/HCV polymerase inhibitors”. In addition, the “substrate and chain termination profile” value in data set [1] (Fig 5A) is given as “less efficiently recognized”. Also, the “discrimination relative to natural CTP, WT RSV polymerase” value in data set [1] worked out at 288±48 fold. Moreover, the values for the Km in data set [1] and in data set [2] were 16 ± 2.7 µM and 198 ± 18 µM, respectively. In addition, the “increase in discrimination, QUAD vs WT (resistance level)” value in data set [2] (recombinant L-P enzymes) is 24 fold.

Regarding `Nc1ccn([C@@H]2O[C@H](COP(=O)(O)OP(=O)(O)OP(=O)(O)O)[C@@H](O)C2(F)F)c(=O)n1` [2'diF-CTP, reference compound], the “inhibition of RSV RNP complex (in words)” value against RSV RNP complex was “did not efficiently inhibit”. The IC50 is above 10 µM on RSV RNP complex (first symbol of RSV / HCV) and 0.1 to 10 µM at HCV polymerase (second symbol of RSV / HCV). Moreover, the “inhibition of HCV polymerase (in words)” value against HCV polymerase (Fig 5B) was “did not efficiently inhibit”. The “substrate and chain termination profile” value in data set [1] is recorded as “substrates for RSV polymerase, but did not cause immediate chain termination”.

As for `Nc1ccn([C@@H]2O[C@H](COP(=O)(O)OP(=O)(O)OP(=O)(O)O)[C@@H](O)[C@H]2F)c(=O)n1` [2'F-CTP], at HCV polymerase, the “inhibition of HCV polymerase (in words)” value is on record as “did not efficiently inhibit”. Also, the “recognition as substrate by human mitochondrial RNA polymerase (in words)” value in data set [3] is “recognized as a substrate”.

Consider `[N-]=[N+]=NC1(COP(=O)(O)OP(=O)(O)OP(=O)(O)O)OC(n2ccc(N)nc2=O)C(F)(F)C1O` (stereo not shown) [2'diF-4'N3-CTP], for which the “inhibition of RSV RNP complex (in words)” value against RSV RNP complex is reported as “dual RSV/HCV polymerase inhibitors”. For the same molecule, the IC50 at RSV RNP complex (first symbol of RSV / HCV) and on HCV polymerase (second symbol of RSV / HCV) was 0.1 to 10 µM throughout. Also, the “inhibition of HCV polymerase (in words)” value against HCV polymerase (Fig 5B) is “dual RSV/HCV polymerase inhibitors”. In addition, the “substrate and chain termination profile” value in data set [1] was “both substrates and chain terminators”.

Consider `CC(C)C(=O)OC[C@@]1(CCl)O[C@@H](n2ccc(N)nc2=O)[C@H](F)[C@@H]1OC(=O)C(C)C` [ALS-8176, 4'-chloromethyl-2'-deoxy-3',5'-di-O-isobutyryl-2'-fluorocytidine], for which, in the data set on RSV A2 (end of treatment), the “difference in RSV RNA titers, vehicle vs treated, BAL” value is listed as above 4 log10 copies/mL and the “difference in RSV RNA titers, vehicle vs treated, nasopharyngeal (NP) swab” value was “about 3 log10 copies/mL”. In addition, the “RSV RNA titer in bronchoalveolar lavage (BAL) samples” value with RSV A2 (end of treatment (Day 5 post-infection), all four animals, LOD 50 copies/mL) is reported as below 50 copies/mL. For the same molecule, the oral bioavailability result in data set [4] is reported as “high”.

As for `[N-]=[N+]=N[C@]1(COP(=O)(O)OP(=O)(O)OP(=O)(O)O)O[C@@H](n2ccc(N)nc2=O)[C@H](F)[C@@H]1O` [2'F-4'N3-CTP], the “inhibition of RSV RNP complex (in words)” value against RSV RNP complex is listed as “dual RSV/HCV polymerase inhibitors”. The IC50 at RSV RNP complex (first symbol of RSV / HCV) and at HCV polymerase (second symbol of RSV / HCV) was 0.1 to 10 µM throughout. In addition, the “inhibition of HCV polymerase (in words)” value against HCV polymerase (Fig 5B) is on record as “dual RSV/HCV polymerase inhibitors”. Besides, the “substrate and chain termination profile” value in data set [1] (Fig 5A) is “both substrates and chain terminators”.

As to `Nc1ccn([C@@H]2O[C@](CCl)(COP(=O)(O)OP(=O)(O)OP(=O)(O)O)[C@@H](O)C2(F)F)c(=O)n1` [2'diF-4'ClCH2-CTP], the IC50 on RSV RNP complex (first symbol of RSV / HCV) and on HCV polymerase (second symbol of RSV / HCV) was above 10 µM each time. Also, in data set [1], the “substrate and chain termination profile” value was “almost completely inactive”.

Values taken from paper PMC4476725 (PLoS Pathogens, 2015).
